Reference: PubChem BioAssay AID248 (DTP/NCI, 2004)
Toxic doses and inconclusive results are not listed. No stated cut-off is given here; in the data, active means T/C of 150% or more; inactive means T/C below 125%.

System: L1210 leukemia ip in BDF1 mice, survival T/C
Assay: NCI In Vivo Anticancer Drug Screen. Data for tumor model L1210 Leukemia (intraperitoneal) in B6D2F1 (BDF1) mice
Conditions: endpoint: mean survival time, higher = longer survival
How it was run: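 Survival endpoint. Drug-treated group vs vehicle group, expressed as T divided by C. Tumor passaged by transplantation.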

[1] = dose: 100.0 mg/kg/injection, schedule: Q04DX003 (ip), vehicle: Klucel (hydroxypropylcellulose) (HPC)
[2] = dose: 200.0 mg/kg/injection, schedule: Q04DX003 (ip), vehicle: Klucel (hydroxypropylcellulose) (HPC)
[3] = dose: 100.0 mg/kg/injection, schedule: Q04DX003 (ip), vehicle: saline with Tween-80
[4] = dose: 200.0 mg/kg/injection, schedule: Q04DX003 (ip), vehicle: saline with Tween-80
[5] = dose: 400.0 mg/kg/injection, schedule: Q04DX003 (ip), vehicle: saline with Tween-80
[6] = dose: 400.0 mg/kg/injection, schedule: Q04DX003 (ip), vehicle: Klucel (hydroxypropylcellulose) (HPC)
[7] = dose: 12.5 mg/kg/injection, schedule: Q01DX009 (ip), vehicle: saline
[8] = dose: 12.5 mg/kg/injection, schedule: Q04DX003 (ip), vehicle: saline
[9] = dose: 25.0 mg/kg/injection, schedule: Q01DX009 (ip), vehicle: saline
[10] = dose: 25.0 mg/kg/injection, schedule: Q04DX003 (ip), vehicle: saline
[11] = dose: 100.0 mg/kg/injection, schedule: Q04DX002 (ip), vehicle: Klucel (hydroxypropylcellulose) (HPC)
[12] = dose: 200.0 mg/kg/injection, schedule: Q04DX002 (ip), vehicle: Klucel (hydroxypropylcellulose) (HPC)
[13] = dose: 400.0 mg/kg/injection, schedule: Q04DX002 (ip), vehicle: Klucel (hydroxypropylcellulose) (HPC)
[14] = dose: 100.0 mg/kg/injection, schedule: Q04DX002 (ip), vehicle: saline with Tween-80

Measured: T/C

C=CCC1(CC)C(=O)NC(=O)NC1=O
inactive: dose: 50.0 mg/kg/injection, schedule: Q01DX009 (ip), vehicle: saline sonified 102 % of control | dose: 100.0 mg/kg/injection, schedule: Q01DX009 (ip), vehicle: saline sonified 110 % of control | [1] 94 % of control | dose: 200.0 mg/kg/injection, schedule: Q01DX009 (ip), vehicle: saline sonified 108 % of control | [2] 94 % of control

O=c1c2cccc3c2-c2c4c(cccc14)cc1cccc(c3=O)c21
inactive: [3] 94 % of control | [4] 89 % of control | [5] 100 % of control

CC(=O)Oc1ccc2c(c1)oc(=O)c1ccc(C)cc12
inactive: [1] 92 % of control | [2] 87 % of control | [6] 92 % of control

O=[N+]([O-])c1ccc2c(c1)c(-c1cccc3ccccc13)nc1ccccc12
inactive: [3] 95 % of control | [4] 93 % of control | [5] 91 % of control

CCCCCCCCCCCC(=O)[O][Hg][c]1ccccc1
inactive: dose: 75.0 mg/kg/injection, schedule: Q01DX001 (ip), vehicle: other 91 % of control

COc1cc(/C=C2\CCNC2=O)ccc1OCc1ccccc1
inactive: dose: 50.0 mg/kg/injection, schedule: Q01DX001 (ip), vehicle: carboxymethylcellulose (CMC) 94 % of control | dose: 100.0 mg/kg/injection, schedule: Q01DX001 (ip), vehicle: carboxymethylcellulose (CMC) 105 % of control | dose: 200.0 mg/kg/injection, schedule: Q01DX001 (ip), vehicle: carboxymethylcellulose (CMC) 97 % of control | dose: 400.0 mg/kg/injection, schedule: Q01DX001 (ip), vehicle: carboxymethylcellulose (CMC) 103 % of control

COC(=O)C1CCC=C2C1CC1CC2C1(C)C (stereo not drawn)
inactive: [1] 97 % of control | [2] 103 % of control | [6] 95 % of control

CCOC(=O)c1nc2cc(C)c(C)cc2[nH]c1=O
inactive: [3] 92 % of control | [4] 99 % of control | [5] 93 % of control

c1ccc(C2CN3CCSC3=N2)cc1 (stereo not drawn)
inactive: dose: 0.78 mg/kg/injection, schedule: Q04DX003 (ip), vehicle: saline 102 % of control | dose: 1.56 mg/kg/injection, schedule: Q01DX009 (ip), vehicle: saline 97 % of control | dose: 1.56 mg/kg/injection, schedule: Q04DX003 (ip), vehicle: saline 100 % of control | dose: 3.12 mg/kg/injection, schedule: Q01DX009 (ip), vehicle: saline 100 % of control | dose: 3.12 mg/kg/injection, schedule: Q04DX003 (ip), vehicle: saline 98 % of control | dose: 6.25 mg/kg/injection, schedule: Q01DX009 (ip), vehicle: saline 102 % of control | dose: 6.25 mg/kg/injection, schedule: Q04DX003 (ip), vehicle: saline 104 % of control | [7] 94 % of control | [8] 107 % of control | [9] 105 % of control | [10] 114 % of control

Cc1ccc(CNC(=O)Nc2ccccc2Cl)c(C)c1
inactive: [11] 105 % of control | [12] 97 % of control | [13] 97 % of control

O=C(OCc1ccccc1CN1CCOCC1)c1ccc([N+](=O)[O-])cc1Cl
inactive: dose: 25.0 mg/kg/injection, schedule: Q04DX002 (ip), vehicle: Klucel (hydroxypropylcellulose) (HPC) 92 % of control | dose: 50.0 mg/kg/injection, schedule: Q04DX002 (ip), vehicle: Klucel (hydroxypropylcellulose) (HPC) 106 % of control | [11] 100 % of control

CC(C)Cc1ncc(CCCN=C(N)N)[nH]c1=O
inactive: dose: 12.5 mg/kg/injection, schedule: Q04DX002 (ip), vehicle: saline with Tween-80 106 % of control | dose: 25.0 mg/kg/injection, schedule: Q04DX002 (ip), vehicle: saline with Tween-80 98 % of control | dose: 50.0 mg/kg/injection, schedule: Q04DX002 (ip), vehicle: saline with Tween-80 95 % of control | [14] 103 % of control

Cc1ccc2nc(/C=C/c3ccc(N(C)C)cc3)cc(C)c2c1
inactive: dose: 25.0 mg/kg/injection, schedule: Q01DX Z (ip), vehicle: carboxymethylcellulose (CMC) 89 % of control | dose: 100.0 mg/kg/injection, schedule: Q01DX Z (ip), vehicle: carboxymethylcellulose (CMC) 96 % of control | dose: 200.0 mg/kg/injection, schedule: Q01DX Z (ip), vehicle: carboxymethylcellulose (CMC) 100 % of control

c1ccc(OCC2(N3CCCCC3)CCCC2)cc1
inactive: [14] 97 % of control

O=[N+]1c2ccccc2N([O-])C2CCCCC21 (stereo not drawn)
inactive: [11] 93 % of control | [12] 93 % of control | [13] 104 % of control

Oc1ccc(Nc2ccnc3cc(Cl)ccc23)cc1CN1CCCC1
inactive: [7] 102 % of control | [8] 101 % of control | [9] 102 % of control | [10] 103 % of control | dose: 50.0 mg/kg/injection, schedule: Q01DX009 (ip), vehicle: saline 100 % of control | dose: 50.0 mg/kg/injection, schedule: Q04DX003 (ip), vehicle: saline 97 % of control | dose: 75.0 mg/kg/injection, schedule: Q01DX009 (ip), vehicle: saline 95 % of control | dose: 115.0 mg/kg/injection, schedule: Q01DX009 (ip), vehicle: saline 102 % of control

CCOC(=O)CNC(=O)C=[N+]=[N-]
inactive: dose: 350.0 mg/kg/injection, schedule: Q01DX Z (ip), vehicle: water 116 % of control | dose: 500.0 mg/kg/injection, schedule: Q01DX Z (ip), vehicle: water 91 % of control
